Values after ≈ are worked out from the molar mass of the structure shown. “Also recorded” adds a separate entry of the source. Read-outs that look alike come from different tables or passages of the source.
Assays:
HTLV-IIIB = test: Anti-HIV activity assay, HTLV-IIIB (MT-4 cells, MTT method); type: cell-based; conditions: for Selectivity index (SI): CD50/ED50, HTLV-IIIB; for EC50: Human immunodeficiency virus 1, MT4, 120 h, MT-4 cells, five days, HTLV-IIIB, read-out: ED50 (50% effective dose)
Description: (§1) Results in relation to HIV virus were obtained by the method of Pauwels et al, Journal of Virological Methods 20, 309 to 321 (1988), as follows:
(§2) MT-4 cells (2.5×10^4 /well) were infected with HIV (100 CCID50) and incubated in the presence of varying concentrations of the test compounds (added immediately after virus infection). After five days incubation at 37° C. in a CO2 incubator, the number of viable cells was assessed by the MTT (tetrazolium) method. Anti-viral activity and cytotoxicity of the compounds are expressed as ED50 (50% effective dose) and CD50 (50% cytotoxic dose), respectively. SI (selectivity index=CD50 /ED50.
(§3) These are given in Table 8 and Table 9 below in relation to HTLV-IIIB and LAV-2ROD viruses.

in vitro = type: cell-based; conditions: human, mt-4 cells, CD50 (50% cytotoxic dose)
Description: as §1, §2

MT-4 cells = test: in vitro; type: cell-based; conditions: human, 120 h
Description: as §1, §2

[1] = test system: herpes simplex virus Type I (HSV I); test: Inhibition of virus replication (plaque assay, BHK-21 cells); type: cell-based, Type 1, Troisbel strain; conditions: for log reduction at 0.1 µg/mL: 0.1 mg/l
Description: 1. Mono-layers of baby hamster kidney cells (BHK-21) are prepared in Petri dishes containing ETC medium (Eagle's minimal essential medium +10% tryptose phosphate broth +10% new born calf serum).
2. After incubation the medium is poured off to leave the layer of cells attached to the Petri dish. A solution containing virus, specifically herpes simplex virus Type I (HSV I) for example, in ETC medium is then added to the dish and incubated with intermittent rocking for one hour to allow the virus to adsorb to the cells of the mono-layer. Unadsorbed virus is then removed by pouring off the virus-containing medium and washing twice with new sterile medium. Then new medium is added to each Petri dish. At this stage various concentrations of drug can be added to the medium.
3. […] First the dishes are frozen to -70° C. and thawed to disrupt the mono-layer and break up the cells. Then the medium and the disrupted cells are transferred to bijou bottles and sonicated to break down the cells completely and to release all the virus particles the cells contain. The sonicated medium is then diluted with fresh sterile ETC medium to give concentrations of the original Petri dish fluid of 10^-2, 10^-4, 10^-6 and 10^-8.
4. The number of virus particles (plaque forming units) in the dilutions is then assayed. A standard number of BHK cells (usually 8×10^6) is added to 2 ml of the diluted solutions and incubated for one hour, with cautious, gentle shaking, and 8 ml of Eagle's minimal essential medium +2% new born calf serum + carboxymethyl cellulose is then added to the cell suspension. This medium has gelling properties which prevent spreading of the virus through the medium and which encourage the formation of discrete plaques in cell mono-layers. The medium from each dilution is then dispensed into Petri dishes and incubated for two to three days.
5. The number of plaques formed is then counted and the amount of active virus expressed as the number of plaque forming units (pfus) as follows. The medium is poured off and the cell mono-layer is fixed using 10% formol saline and stained with dilute carbol fuchsin. The number of plaques in each Petri dish is counted. Based on the dilutions, the number of plaque forming virus particles in the original solutions is calculated.
In the Table, the figures are the concentration of viral particles in pfu/ml present in the cells + medium at the end of the replication stage (3).

[2] = test system: herpes simplex virus Type I; test: Inactivation of virus (30 minutes incubation, plaque assay); type: cell-based, Type 1, Troisbel strain; conditions: for log reduction at 5 µg/mL: 5 mg/l; for Virus titre (inactivation of virus): 30 minutes, control 5.4 × 10^4 (GLA-alcohol), 4.5 × 10^4 (GLA-AZT)
Description: 1. A virus solution containing 2×10^5 pfu/ml is prepared in phosphate buffered saline (Dulbecco's A).
2. The compound to be tested is made up in Dulbecco's medium A in a suitable range of dilutions.
3. Equal volumes of the virus and drug solution are mixed together. Control solutions without drug are also used.
4. The virus and drug are incubated for an appropriate period of time, in this example, thirty minutes.
5. The numbers of active viral particles in the solution are assayed as in items 4 and 5 under A.
The results are shown below (Table 6). In the Table, the figures are concentrations of viral particles present after incubation of the virus for 30 minutes with solutions of the drugs.

LAV-2ROD = test: Anti-HIV activity assay, LAV-2ROD (MT-4 cells, MTT method); type: cell-based; conditions: for Selectivity index (SI): CD50/ED50, LAV-2ROD; for EC50: MT4, 120 h, MT-4 cells, five days, LAV-2ROD, read-out: ED50 (50% effective dose)
Description: as §1, §2, §3

[3] = Human alphaherpesvirus 1, 0.5 h, 1 mg/l, read-out: Inactivation of virus (log10 reduction in virus titre)
[4] = Human alphaherpesvirus 1, 0.5 h, read-out: Inactivation of virus (log10 reduction in virus titre)
[5] = Human alphaherpesvirus 1, BHK-21, 24 h, read-out: Inhibition of viral replication (log10 reduction in virus titre)
[6] = Human alphaherpesvirus 1, BHK-21, 24 h, 1 mg/l, read-out: Inhibition of viral replication (log10 reduction in virus titre)

| Structure (SMILES) | Selectivity index (SI) (HTLV-IIIB) | EC50 (HTLV-IIIB) [µg/mL] | CC50 at 120 h (in vitro) [µg/mL] | CD50 (50% cytotoxic dose) (MT-4 cells) [µg/mL] | % in chloroform phase (partition co-efficients, water/chloroform) [%] | Inhibition of herpes virus replication (in words) [1] | Virucidal activity / inactivation of herpes virus (in words) [2] | log reduction at 1 µg/mL [2, 3] | log reduction at 5 µg/mL [2, 4] | Selectivity index (SI) (LAV-2ROD) | EC50 (LAV-2ROD) [µg/mL] | log reduction at 0.1 µg/mL [1, 5] | log reduction at 1 µg/mL [1, 6] | other results |
| --- | --- | --- | --- | --- | --- | --- | --- | --- | --- | --- | --- | --- | --- | --- |
| CCCCC/C=C\C/C=C\CCCCCCCC(=O)OC[C@H]1O[C@@H](n2cc(C)c(=O)[nH]c2=O)C[C@@H]1N=[N+]=[N-] [AK 2] | 26008 | 0.000365 (≈ 0.000689 µM) | 9.49 (≈ 17.9 µM) | 5.9512 | > 99 | to inhibit its replication | virucidal | 2.2 | 2.8 | 7999 | 0.000744 (≈ 0.0014 µM) | – | – | Inhibition of viral replication (in words) ([1]; up to 100 mg/l): no inhibition; Virucidal activity / inactivation of herpes virus (in words) ([2]; listed as AZT-LA): able both to inactivate the herpes virus |
| CCCCC/C=C\C/C=C\C/C=C\CCCCC(=O)OC[C@H]1O[C@@H]2C[C@H]1Oc1nc(=O)c(C)cn12 [AK 3, GLA - Anhydrothymidine] | < 1 | > 40 | 17.7 (≈ 36.6 µM) | 16.8593 | > 98 | – | virucidal | 2.7 | – | < 1 | > 40 | – | – | log reduction at 25 µg/mL ([1]; Human alphaherpesvirus 1, BHK-21, 24 h, 25 mg/l, read-out: Inhibition of viral replication (log10 reduction in virus titre)): 0.5; log reduction at 50 µg/mL ([1]; Human alphaherpesvirus 1, BHK-21, 24 h, 50 mg/l, read-out: Inhibition of viral replication (log10 reduction in virus titre)): 0.9; log reduction at 100 µg/mL ([1]; Human alphaherpesvirus 1, BHK-21, 24 h, 100 mg/l, read-out: Inhibition of viral replication (log10 reduction in virus titre)): 1.2; log reduction at 0.5 µg/mL ([2]; Human alphaherpesvirus 1, 0.5 h, 0.5 mg/l, read-out: Inactivation of virus (log10 reduction in virus titre)): 1.6 |
| CCCCC/C=C\C/C=C\C/C=C\CCCCC(=O)Nc1nc2c(ncn2COCCOC(=O)CCCC/C=C\C/C=C\C/C=C\CCCCC)c(=O)[nH]1 [AK 10, digamma-linolenyl acyclovir] | < 1 | > 8 | – | – | > 99 | very effective | virucidal; also recorded: very effective | 0.94 | 1.54 | < 1 | > 40 | 0.45 | 1.13 | log reduction at 0.5 µg/mL ([1]; Human alphaherpesvirus 1, BHK-21, 24 h, 0.5 mg/l, read-out: Inhibition of viral replication (log10 reduction in virus titre)): 0.86; log reduction at 1 µg/mL ([1]; Human alphaherpesvirus 1, BHK-21, 24 h, 1 mg/liter solution, read-out: Reduction of virus replication, log): 1; inhibition at 1 µg/mL ([1]; Human alphaherpesvirus 1, BHK-21, 24 h, 1 mg/liter solution, read-out: Reduction of virus replication, percent): 90%; log reduction at 1 µg/mL ([2]; Human alphaherpesvirus 1, 0.5 h, 1 mg/liter solution, read-out: Inactivation of virus, log): 1; killing at 1 µg/mL ([2]; Human alphaherpesvirus 1, 0.5 h, 1 mg/liter solution, read-out: Inactivation of virus, percent): 90% |
| CCCCC/C=C\C/C=C\C/C=C\CCCCC(=O)Nc1nc2c(ncn2COCCO)c(=O)[nH]1 [AK 12] | – | – | – | – | – | – | virucidal | 0.6 | 1.4 | – | – | 1.9 | 3.9 | – |
| CCCCC/C=C\C/C=C\CCCCCCCC(=O)Nc1nc2c(ncn2COCCO)c(=O)[nH]1 [AK 13] | – | – | – | – | – | – | virucidal | 1.3 | 1.8 | – | – | 2.45 | 4.3 | – |
| CCCCC/C=C\C/C=C\C/C=C\CCCCC(=O)OC[C@@H]1C=C[C@H](n2cc(C)c(=O)[nH]c2=O)O1 [AK 14] | 134 | 0.076 (≈ 0.157 µM) | 10.3 (≈ 21.2 µM) | 8.84 | – | – | – | – | – | 110 | 0.08 (≈ 0.165 µM) | – | – | – |
| CCCCC/C=C\C/C=C\CCCCCCCC(=O)OC[C@@H]1C=C[C@H](n2cc(C)c(=O)[nH]c2=O)O1 [AK 15] | 256 | 0.064 (≈ 0.132 µM) | 16.5 (≈ 33.9 µM) | 24.23 | – | – | – | – | – | 378 | 0.064 (≈ 0.132 µM) | – | – | – |
| Cc1cn([C@H]2C=C[C@@H](CO)O2)c(=O)[nH]c1=O [AK 16, dideoxy-didehydro thymidine, reference compound] | 574 | 0.077 (≈ 0.343 µM) | 44.4 (≈ 198 µM) | 46.65 | – | – | – | – | – | 1196 | 0.039 (≈ 0.174 µM) | – | – | – |
| CCCCC/C=C\C/C=C\C/C=C\CCCCCO [GLA alcohol, reference compound] | – | – | – | – | – | no effect at all | able to inactivate the herpes simplex virus | – | – | – | – | – | – | Virus titre (inactivation of virus) ([2]; 5 μg/ml): 3.0 × 10^3; Virus titre (inactivation of virus) ([2]; 10 μg/ml): 2.2 × 10^2; Virus titre (inactivation of virus) ([2]; 25 μg/ml): < 1.0 × 10^2 |
| CCCCC/C=C\C/C=C\CCCCCCCC(=O)O [LA, linoleic acid, reference compound] | – | – | – | – | – | completely unable to inhibit viral replication | active at concentrations comparable to GLA; also recorded: same effect in inactivating the herpes virus | – | – | – | – | – | – | – |

Reference: patent US5216142A, “Anti-virals” (Efamol Holdings plc, priority 1989, dated 1993)
